{"source": "paper PMC7350276", "about": "(Journal of pharmaceutical and biomedical analysis, 2019)", "origin": "cited, not measured here", "key": {"[1]": {"settings": "I.V. 5 mg/kg, mean ± R.S.D."}, "μ-opioid receptors [2]": {"test_system": "μ-opioid receptors"}, "μ-opioid receptors [3]": {"test_system": "μ-opioid receptors", "settings": "reversal of morphine-induced inhibition of twitch of the Guinea pig ileum"}, "rabbits [4]": {"test_system": "rabbits", "settings": "intravenously at doses higher than 10 mg/kg"}, "rabbits [5]": {"test_system": "rabbits", "settings": "subcutaneous 15–20 mg/kg, co-injected with 0.2 mg/kg adrenaline"}, "[6]": {"settings": "male rats, I.V. 4 mg/kg"}}, "note": "Read-outs that look alike come from different tables or passages of the source."}
{"compound": "mitragynine [MG]", "values": [{"measurement": "MRT", "setting": "[1]", "value": "137 ± 18"}, {"measurement": "Functional activity at μ-opioid receptors", "setting": "μ-opioid receptors [2]", "value": "partial agonist"}]}
{"compound": "corynantheidine", "values": [{"measurement": "Functional activity at μ-opioid receptors", "setting": "μ-opioid receptors [3]", "value": "antagonist"}, {"measurement": "Effect on hypertensive effects of adrenaline", "setting": "rabbits [4]", "value": "almost fully blocked"}, {"measurement": "Effect on adrenaline-induced mydriasis", "setting": "rabbits [5]", "value": "prevented adrenaline-induced mydriasis"}]}
{"compound": "CC[C@@H]1CN2CC[C@@]3(O)C(=Nc4cccc(OC)c43)[C@@H]2C[C@@H]1/C(=C\\OC)C(=O)OC", "note": "[7HMG, 7-hydroxymitragynine]", "values": [{"measurement": "MRT", "setting": "[6]", "value": "1.18 ± 0.167", "unit": "h"}, {"measurement": "Functional activity at μ-opioid receptors", "setting": "μ-opioid receptors [2]; no reference given", "value": "potent μ-opioid agonist"}]}
